Where two headings read alike, the source gives them in different places.
Legend:
[1] = Absorption spectra of formazans formed from the tetrazolium salts; format: physicochemical; conditions: 100 μM tetrazolium salt in 100 mM potassium phosphate buffer, 5-fold excess ascorbate; compared with HTC-045
Description: The compounds prepared and tested for their solubility had somewhat different spectral properties. The absorption spectra of each formazan formed from the tetrazolium salt and tested for solubility in Table 1 was measured with a Hewlett Packard Model 8453 diode-array UV-visible spectrophotometer. Solutions of 100 μM of a tetrazolium salt were prepared in 100 mM potassium phosphate buffer. The formazan spectra were measured after the addition of 5-fold excess ascorbate acid salt to convert the tet salts to their formazans.

[2] = Solubility of tetrazolium salts in 0.2M phosphate buffer; format: physicochemical
[3] = 0.2M phosphate buffer, pH ~7.5, room temperature

Compound | shape of formazan absorbance versus wavelength curve [1] | Solubilility [2] | Solubilility [2, 3]
5-Benzo[1,3 dioxol-5-yl]-3-[2-(3-trimethylammonium) propoxy-phenyl]-2(benzothiazol-2-yl)-2 H-tetrazolium bromo nitrite salt [Example 4] | relatively flat |  | 
5-Benzo[1,3 dioxol-5-yl]-3-[2-(3-trimethylammonium) propoxy-phenyl]-2-(5-chloro-4-difluoromethyl-thiazol-2-yl)-2 H-tetrazolium bromo tetrafluoroborate salt [Example 2] | relatively flat | 5 mM | 
5-Benzo[1,3 dioxol-5-yl]-3-[2-(3-trimethylammonium) propoxy-phenyl]-2-(5-chloro-4-difluoromethyl-thiazol-2-yl)-2H-tetrazolium bromo nitrite salt [Example 1] | relatively flat |  | 
5-Benzo[1,3 dioxol-5-yl]-3-[2-(3-trimethylammonium) propoxy-phenyl]-2-(6-methoxynapthylthiazol-2-yl)-2 H-tetrazolium bromo nitrite salt [Example 5] | rising absorbance verses wavelength curve |  | 
5-[4-(3-trimethylammonium) propoxy-3-methoxy-phenyl]-3-[2-(3-trimethylammonium) propoxy-phenyl]-2-(6-ethoxy-benzothiazol-2-yl)-2H-tetrazolium tribromide salt [Example 9] |  |  | 260 mM
5-[4-(3-trimethylammonium)propoxy-3-methoxy-phenyl]-3-[2-(3-trimethylammonium) propoxy-phenyl]-2-(6-bromo-benzothiazol-2-yl)-2H-tetrazolium dibromo nitrite salt [Example 8] | relatively flat |  | 
Br.CN(C)CCCOc1ccccc1-[n+]1nc(-c2ccc3c(c2)OCO3)nn1-c1nc(C(F)F)c(Cl)s1.O=N[O-] [Example 3, 5-Benzo[1,3 dioxol-5-yl]-3-[2-(3-dimethylhydrogenammoniun)propoxy-phenyl]-2-(5-chloro-4-difluoromethyl-thiazol-2-yl)-2 H-tetrazolium bromo nitrite salt] | relatively flat | 9 mM | 
COc1cc(-c2nn(-c3nc(C(F)F)c(Cl)s3)[n+](-c3ccccc3OCCC[N+](C)(C)C)n2)ccc1OCCC[N+](C)(C)C.O=N[O-].[Br-].[Br-] [Example 6, 5-[4-(3-trimethylammonium)propoxy-3-methoxy-phenyl]-3-[2-(3-trimethylammonium)propoxy-phenyl]-2-(5-chloro-4-difluoromethyl-thiazol-2-yl)-2H-tetrazolium dibromo nitrite salt] | relatively flat |  | 181 mM
CCOc1ccc2nc(-n3nc(-c4ccc(OCCC[N+](C)(C)C)c(OC)c4)n[n+]3-c3ccccc3OCCC[N+](C)(C)C)sc2c1.O=N[O-].[Br-].[Br-] [Example 7] | relatively flat | 169 mM | 

— patent US7767822B2, “Water-soluble tetrazolium salts” (Bayer Healthcare LLC, priority 2005, dated 2010)
